Experimental data as given in patent publication US20240415819A1, “MACROCYCLIC COMPOUNDS AS PROTEASOME SUBUNIT BETA TYPE-5 INHIBITORS” (Lead Discovery Center GmbH, priority 2021, published 2024).
Like-named read-outs stand apart in the source and are kept apart here.

Legend:
[1] = molecular target: T1, β5 subunit of the human constitutive proteasome (CPS) (Homo sapiens, UniProt P28074); assay: β5 inhibition assay, human constitutive proteasome (Suc-LLVY-AMC); format: biochemical; settings: IC50 class, Suc-LLVY-AMC substrate
T1 construct: purchased Boston Biochem E-360
Experimental: The enzymatic activity of the β5 subunit of the human constitutive proteasome (CPS) is analyzed. In another assay, which differs from the assay of the human constitutive proteasome only in using the human immunoproteasome (IPS) the enzymatic activity of the β5 subunit of the human immunoproteasome (IPS) is analyzed. […] Inhibition is indicated as IC50 [nM] (“-”=not measured).

[2] = molecular target: T2, β5 subunit of the human immunoproteasome (IPS) (Homo sapiens, UniProt P28062); assay: β5 inhibition assay, human immunoproteasome (Suc-LLVY-AMC); format: biochemical; settings: IC50 class, Suc-LLVY-AMC substrate
T2 construct: purchased Boston Biochem E-370
Outline: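 β5 activity is read as liberated AMC fluorescence (355/460 nm) after 4 h dark reaction at RT with 22.6 μM Suc-LLVY-AMC, stopped by 1 μM bortezomib. Beforehand, 1 nM human IPS and compound sat 10 min at RT in HEPES pH 7.5 buffer containing NaCl, 0.02% SDS and DTT.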

HT-29 cells = assay: CellTiter-Glo luminescent cell viability assay with HT-29 cells (72h incubation); format: cell-based, human; settings: Homo sapiens, HT-29, HT29 cells, read-out: CTG HT29
Outline: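 Viability read as CellTiter-Glo luminescence after 72 h compound exposure, with 10 μM staurosporine and DMSO as control wells. Seeding 400 cells per well, compound added 24 h post-plating; IC50 from curve fitting.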

[3] = test system: A549 (human lung carcinoma cell line); assay: Glo assay of A549 cells (Table 3; ProteasomeGlo plating scheme); format: cell-based; settings: Homo sapiens
Outline: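 IC50 values (nM) come from a cell-based chymotrypsin-like Proteasome-Glo luminescence assay. Compound exposure ran 105 min at 37° C.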

[4] = A549 cells, read-out: PGLo A549

Row | SMILES | IC50 [1] [nM] | IC50 [2] [nM] | IC50 (HT-29 cells) [nM] | IC50 [3, 4] [nM] | IC50 ([3]; A549, read-out: PGLo A549 [nM]) [nM]
1 | Cc1ccc2cc1CNC(=O)[C@@H](CCc1ccccc1)NC(=O)[C@@H](NC(=O)OCc1ccccc1)CC(=O)N1CCC[C@H](CCO2)C1 [Compound 289, benzyl ((13R,9R,12S)-5^4-methyl-8,11,14-trioxo-9-phenethyl-4-oxa-7,10-diaza-1(3,1)-piperidina-5(1,3)-benzenacyclotetradecaphane-12-yl)carbamate] | 100 to 500 | 100 to 500 | 100 to 500 | 500 to 1000 | 
2 | CC(=O)N[C@H]1CCC(=O)N(C)CCCCOc2ccc(C)c(c2)CNC(=O)[C@H](CCc2ccccc2)NC1=O [Compound 282, N-((11S,14S)-1^4,7-dimethyl-8,12,15-trioxo-1^4-phenethyl-2-oxa-7,13,16-triaza-1(1,3)-benzenacycloheptadecaphane-11-yl)acetamide] | > 5000 | 500 to 1000 | 100 to 500 | > 5000 | 
3 | Cc1ccc2cc1CNC(=O)[C@H](CCc1ccccc1)NC(=O)[C@@H](NC(=O)C1(C)CCOCC1)CC(=O)N1CCCC(CCO2)C1 (stereo partly drawn) [Compound 288, 4-methyl-N-((9S,12S)-5^4-methyl-8,11,14-trioxo-9-phenethyl-4-oxa-7,10-diaza-1(3,1)-piperidina-5(1,3)-benzenacyclotetradecaphane-12-yl)tetrahydro-2H-pyran-4-carboxamide] | < 100 | < 100 | < 100 | 100 to 500 | 
4 | Cc1ccc2cc1CNC(=O)[C@@H](CCc1ccccc1)NC(=O)[C@H](NC(=O)OCc1ccccc1)CC(=O)N1CCC[C@H](CCO2)C1 [Compound 290, benzyl ((13R,9R,12R)-5^4-methyl-8,11,14-trioxo-9-phenethyl-4-oxa-7,10-diaza-1(3,1)-piperidina-5(1,3)-benzenacyclotetradecaphane-12-yl)carbamate] | 1000 to 5000 | 500 to 1000 | 100 to 500 | > 5000 | 
5 | Cc1ccc2cc1CNC(=O)[C@H](CCc1ccccc1)NC(=O)[C@@H](NC(=O)c1cc3cc(C(F)(F)F)ccc3n1C)CC(=O)N1CCCC(CCO2)C1 (stereo partly drawn) [Compound 87, 1-methyl-N-((9S,12S)-5^4-methyl-8,11,14-trioxo-9-phenethyl-4-oxa-7,10-diaza-1(3,1)-piperidina-5(1,3)-benzenacyclotetradecaphane-12-yl)-5-(trifluoromethyl)-1H-indole-2-carboxamide] | < 100 | < 100 | < 100 | < 100 | 
6 | Cc1ccc2cc1CNC(=O)C(c1cnn(C)c1)NC(=O)CCC(=O)N1CCCC(CCO2)C1 (stereo not shown) [Compound 116, 5^4-methyl-9-(1-methyl-1H-pyrazol-4-yl)-4-oxa-7,10-diaza-1(3,1)-piperidina-5(1,3)-benzenacyclotetradecaphane-8,11,14-trione] | > 5000 | 100 to 500 | 100 to 500 | > 5000 | 
7 | Cc1ccc2cc1CNC(=O)[C@H](CCc1ccccc1)NC(=O)[C@@H](NC(=O)C1CCC(C(F)(F)F)N1)CC(=O)N1CCCC(CCO2)C1 (stereo partly drawn) [Compound 157, N-((9S,12S)-5^4-methyl-8,11,14-trioxo-9-phenethyl-4-oxa-7,10-diaza-1(3,1)-piperidina-5(1,3)-benzenacyclotetradecaphane-12-yl)-5-(trifluoromethyl)pyrrolidine-2-carboxamide] | < 100 | < 100 | < 100 | 100 to 500 | 
8 | Cc1ccc2cc1CNC(=O)[C@H](CCc1ccccc1)NC(=O)[C@@H](NC(=O)c1ccccc1)CC(=O)N1CCCC(CCO2)C1 (stereo partly drawn) [Compound 26, N-((9S,12S)-5^4-methyl-8,11,14-trioxo-9-phenethyl-4-oxa-7,10-diaza-1(3,1)-piperidina-5(1,3)-benzenacyclotetradecaphane-12-yl)benzamide] | < 100 | < 100 | < 100 | < 100 | 
9 | Cc1ccc2cc1CNC(=O)[C@H](CCc1ccccc1)NC(=O)[C@@H](NC(=O)C1CCCc3ccccc31)CC(=O)N1CCCC(CCO2)C1 (stereo partly drawn) [Compound 82, N-((9S,12S)-5^4-methyl-8,11,14-trioxo-9-phenethyl-4-oxa-7,10-diaza-1(3,1)-piperidina-5(1,3)-benzenacyclotetradecaphane-12-yl)-1,2,3,4-tetrahydronaphthalene-1-carboxamide] | < 100 | < 100 | < 100 | < 100 | 
10 | COCCOCCOCCOC(=O)N[C@H]1CC(=O)N2CCCC(CCOc3ccc(C)c(c3)CNC(=O)[C@H](CCc3ccccc3)NC1=O)C2 (stereo partly drawn) [Compound 220, 2-(2-(2-methoxyethoxy)ethoxy)ethyl ((9R,12R)-5^4-methyl-8,11,14-trioxo-9-phenethyl-4-oxa-7,10-diaza-1(3,1)-piperidina-5(1,3)-benzenacyclotetradecaphane-12-yl)carbamate] | < 100 | < 100 | < 100 |  | < 100
11 | Cc1ccc2cc1CNC(=O)[C@H](CCc1ccccc1)NC(=O)[C@@H](NC(=O)CN1CCNCC1)CC(=O)N1CCCC(CCO2)C1 (stereo partly drawn) [Compound 126, N-((9S,12S)-5^4-methyl-8,11,14-trioxo-9-phenethyl-4-oxa-7,10-diaza-1(3,1)-piperidina-5(1,3)-benzenacyclotetradecaphane-12-yl)-2-(piperazin-1-yl)acetamide] | < 100 | < 100 | 100 to 500 | < 100 | 
12 | CC(=O)N[C@H]1CCC(=O)NCCCCOc2ccc(C)c(c2)CNC(=O)[C@H](CCc2ccccc2)NC1=O [Compound 171, N-((11S,14S)-1^4-methyl-8,12,15-trioxo-14-phenethyl-2-oxa-7,13,16-triaza-1(1,3)-benzenacycloheptadecaphane-11-yl)acetamide] | 100 to 500 | < 100 | 100 to 500 | 500 to 1000 | 
13 | Cc1ccc2cc1CNC(=O)[C@H](CCc1ccccc1)NC(=O)[C@@H](NC(=O)CCc1ccc(Br)cc1)CC(=O)N1CCCC(CCO2)C1 (stereo partly drawn) [Compound 175, 3-(4-bromophenyl)-N-((9S,12S)-5^4-methyl-8,11,14-trioxo-9-phenethyl-4-oxa-7,10-diaza-1(3,1)-piperidina-5(1,3)-benzenacyclotetradecaphane-12-yl)propanamide] | < 100 | < 100 | < 100 | < 100 | 

Second part, led by results:

Row | IC50 [1] [nM] | IC50 [2] [nM] | IC50 (HT-29 cells) [nM] | IC50 [3, 4] [nM] | SMILES | IC50 ([3]; A549, read-out: PGLo A549 [nM]) [nM]
14 | < 100 | < 100 | < 100 | 100 to 500 | CC(=O)N[C@H]1CCC(=O)N2CCCC(CCOc3ccc(C)c(c3)CNC(=O)[C@H](CCc3ccccc3)NC1=O)C2 (stereo partly drawn) [Compound 215, N-((9S,12S)-5^4-methyl-8,11,15-trioxo-9-phenethyl-4-oxa-7,10-diaza-1(3,1)-piperidina-5(1,3)-benzenacyclopentadecaphane-12-yl)acetamide] | 
15 | < 100 | < 100 | < 100 | < 100 | CC(=O)N[C@H]1CC(=O)N2CCCC(CCOc3ccc(F)c(c3)CNC(=O)[C@H](CCc3ccccc3)NC1=O)C2 (stereo partly drawn) [Compound 205, N-((9S,12S)-5^4-fluoro-8,11,14-trioxo-9-phenethyl-4-oxa-7,10-diaza-1(3,1)-piperidina-5(1,3)-benzenacyclotetradecaphane-12-yl)acetamide] | 
16 | < 100 | < 100 | < 100 | 100 to 500 | Cc1ccc2cc1CNC(=O)[C@H](CCc1ccccc1)NC(=O)[C@@H](NC(=O)C1CCN1)CC(=O)N1CCCC(CCO2)C1 (stereo partly drawn) [Compound 160, (2R)-N-((9S,12S)-5^4-methyl-8,11,14-trioxo-9-phenethyl-4-oxa-7,10-diaza-1(3,1)-piperidina-5(1,3)-benzenacyclotetradecaphane-12-yl)azetidine-2-carboxamide] | 
17 | < 100 | < 100 | 100 to 500 | 100 to 500 | Cc1ccc2cc1CNC(=O)[C@H](CCc1ccccc1)NC(=O)[C@@H](Nc1ccccn1)CC(=O)N1CCCC(CCO2)C1 (stereo partly drawn) [Compound 36, (9S,12S)-5^4-methyl-9-phenethyl-12-(pyridin-2-ylamino)-4-oxa-7,10-diaza-1(3,1)-piperidina-5(1,3)-benzenacyclotetradecaphane-8,11,14-trione] | 
18 | < 100 | < 100 | 500 to 1000 | 500 to 1000 | Cc1ccc2cc1CNC(=O)[C@H](CCc1ccccc1)NC(=O)CCC(=O)N1CCCC(CCO2)C1 (stereo partly drawn) [Compound 13, (9S)-5^4-methyl-9-phenethyl-4-oxa-7,10-diaza-1(3,1)-piperidina-5(1,3)-benzenacyclotetradecaphane-8,11,14-trione] | 
19 | < 100 | < 100 | 100 to 500 | 100 to 500 | CNCCOCC(=O)N[C@H]1CC(=O)N2CCCC(CCOc3ccc(C)c(c3)CNC(=O)[C@H](CCc3ccccc3)NC1=O)C2 (stereo partly drawn) [Compound 130, N-((9S,12S)-5^4-methyl-8,11,14-trioxo-9-phenethyl-4-oxa-7,10-diaza-1(3,1)-piperidina-5(1,3)-benzenacyclotetradecaphane-12-yl)-2-(2-(methylamino)ethoxy)acetamide] | 
